Source: patent US20240391862A1, “(1,4,5-TRISUBSTITUTED-1H-PYRAZOL-3-YL)OXY-2-ALKOXY ALKYL ACIDS AND THEIR DERIVATIVES, THEIR SALTS AND THEIR USE AS HERBICIDAL AGENTS” (Bayer AKtiengesellschaft, priority 2021, published 2024)

Experiments:
ZEAMX = test: Post-emergence herbicidal effect and crop plant compatibility, greenhouse pot test; assay type: in vivo, Zea mays; settings: one-leaf stage, rated visually after about 3 weeks vs untreated controls
Outline: (§1)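 Sandy loam pots, greenhouse. One-leaf stage (2–3 wk after sowing) foliar spray; WP/EC in water + 0.5% additive, 600 l/ha; 20–320 g/ha. Visual score ~3 wk, 0–100% vs untreated.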

TRZAS = test: as above; assay type: in vivo, Triticum aestivum; settings: 20 g/ha, one-leaf stage, rated visually after about 3 weeks vs untreated controls
Outline: as §1

ORYSA = test: as above; assay type: in vivo, Oryza sativa; settings: for Post-emergence effect at 320 g/ha against ORYSA in %: one-leaf stage, rated visually after about 3 weeks vs untreated controls; for Post-emergence effect against ORYSA: visual rating about 3 weeks after treatment, crop plant
Description: • ALOMY: Alopecurus myosuroides SETVI: Setaria viridis • AVEFA: Avena fatua POLCO: Fallopia convolvulus • AMARE: Amaranthus retroflexus ECHCG: Echinochloa crus-galli • LOLRJ: Lolium rigidum STEME: Stellaria media • VERPE: Veronica persica MATIN: Tripleurospermum inodorum • DIGSA: Digitaria sanguinalis ABUTH: Abutylon threophrasti • TRZAS: Triticum aestivum VIOTR: Viola tricolor • BRSNW: Brassica napus ZEAMX: Zea mays • PHBPU: Ipomoea purpurea GLXMA: Glycine max • ORYSA: Oryza sativa HORMU: Hordeum murinum
Seeds of monocotyledonous and dicotyledonous weeds and crop plants are placed in sandy loam in plastic or organic planting pots, covered with soil and cultivated in a greenhouse under controlled growth conditions. 2 to 3 weeks after sowing, the trial plants are treated at the one-leaf stage. The compounds of the invention, formulated in the form of wettable powders (WP) or as emulsion concentrates (EC), are then sprayed onto the green parts of the plants as aqueous suspension or emulsion with addition of 0.5% additive at a water application rate of 600 l/ha (converted). After the test plants have been kept in the greenhouse under optimum growth conditions for about 3 weeks, the activity of the preparations is rated visually in comparison to untreated controls. For example, 100% activity=the plants have died, 0% activity=like control plants.
Tables 20a to 38c below show the effects/crop compatibilities of selected compounds of the general formula (I) on various harmful plants at an application rate corresponding to 20 to 320 g/ha, which were obtained by the trial procedure specified above.

DIGSA = test: Post-emergence herbicidal effect, greenhouse pot test; assay type: in vivo, Digitaria sanguinalis; settings: 320 g/ha, visual rating about 3 weeks after treatment
Outline: (§2)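 Weeds sown in sandy loam, greenhouse-grown 2–3 weeks, then sprayed at one-leaf stage with WP or EC formulations in water plus 0.5% additive at 600 l/ha. Rates 20 to 320 g/ha. Visual rating after about 3 weeks versus untreated controls (100% = plants dead, 0% = like control).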

ABUTH = test: as above; assay type: in vivo, Abutilon theophrasti; settings: visual rating about 3 weeks after treatment
Outline: as §2

ECHCG = test: as above; assay type: in vivo, Echinochloa crus-galli
Outline: as §2

AMARE = test: as above; assay type: in vivo, Amaranthus retroflexus; settings: visual rating about 3 weeks after treatment
Outline: as §2

AVEFA = test: as above; assay type: in vivo, Avena fatua; settings: 320 g/ha, visual rating about 3 weeks after treatment
Outline: as §2

ALOMY = test: as above; assay type: in vivo, Alopecurus myosuroides; settings: 320 g/ha, visual rating about 3 weeks after treatment
Outline: as §2

PHBPU = test: as above; assay type: in vivo, Ipomoea purpurea
Outline: as §2

VERPE = test: as above; assay type: in vivo, Veronica persica
Outline: as §2

SETVI = test: as above; assay type: in vivo, Setaria viridis
Outline: as §2

POLCO = test: as above; assay type: in vivo, Fallopia convolvulus
Outline: as §2

VIOTR = test: as above; assay type: in vivo, Viola tricolor
Outline: as §2

MATIN = test: as above; assay type: in vivo, Tripleurospermum inodorum
Outline: as §2

SMILES	Post-emergence effect at 20 g/ha against ZEAMX in % (ZEAMX) [%]	Post-emergence effect at 20 g/ha against TRZAS in % (TRZAS) [%]	Post-emergence effect at 320 g/ha against ORYSA in % (ORYSA) [%]	Post-emergence effect at 80 g/ha against ZEAMX in % (ZEAMX; 80 g/ha) [%]	Post-emergence effect against DIGSA (DIGSA) [%]	Post-emergence effect against ABUTH (ABUTH; 80 g/ha) [%]	Post-emergence effect against ABUTH (ABUTH; 320 g/ha) [%]	Post-emergence effect against ECHCG in % (ECHCG; 80 g/ha) [%]	Post-emergence effect against ECHCG in % (ECHCG; 320 g/ha) [%]	Post-emergence effect against AMARE (AMARE; 80 g/ha) [%]	Post-emergence effect against AMARE (AMARE; 320 g/ha) [%]	Post-emergence effect against AVEFA (AVEFA) [%]	Post-emergence effect against ALOMY (ALOMY) [%]	Post-emergence effect against PHBPU in % (PHBPU; 80 g/ha) [%]	Post-emergence effect against PHBPU in % (PHBPU; 320 g/ha) [%]	Post-emergence effect against VERPE in % (VERPE; 80 g/ha) [%]	Post-emergence effect against VERPE in % (VERPE; 320 g/ha) [%]	Post-emergence effect against SETVI in % (SETVI; 320 g/ha) [%]	Post-emergence effect against POLCO in % (POLCO; 320 g/ha) [%]	Post-emergence effect against VIOTR in % (VIOTR; 80 g/ha) [%]	also measured
COC(Oc1nn(-c2ccccc2F)c(-c2ccc(F)nc2)c1Br)C(=O)O (centres unmarked) [Example I-12]	0	0	20	–	–	–	–	–	–	–	–	–	–	–	–	–	–	–	–	–	plant injury at 80 g/ha (ZEAMX; Zea mays, 504 h, 80 g/ha, read-out: Post-emergence effect at 80 g/ha against ZEAMX in %): 20%
COC(Oc1nn(-c2ccccc2F)c(-c2ccc(F)nc2)c1Br)C(=O)O (centres unmarked) [Example I-24]	0	0	10	10	–	–	–	–	–	–	–	–	–	–	–	–	–	–	–	–	plant injury at 320 g/ha (ZEAMX; Zea mays, 504 h, 320 g/ha, read-out: Post-emergence effect at 320 g/ha against ZEAMX in %): 20%
COC(=O)CCOC(=O)C(OC)Oc1nn(-c2ccccc2F)c(-c2ccc(F)nc2)c1Br (single isomer, unassigned) [Example I-20]	0	–	–	20	90	80	90	80	90	80	90	90	80	80	90	80	90	80	80	80	Post-emergence effect against SETVI in % (SETVI; 80 g/ha): 80%; Post-emergence effect against VIOTR in % (VIOTR; 320 g/ha): 90%; Post-emergence effect against MATIN in % (MATIN; 80 g/ha): 80%; Post-emergence effect against MATIN in % (MATIN; 320 g/ha): 90%; Post-emergence effect against ORYSA (ORYSA; 20 g/ha): 0%
COC(=O)C(OC)Oc1nn(-c2cccc(Cl)c2F)c(-c2cncc(F)c2)c1I (centres unmarked) [Example I-19]	–	20	20	–	90	90	90	80	90	80	80	80	80	90	90	80	80	80	80	80	Post-emergence effect against PHBPU in % (PHBPU; 20 g/ha): 80%; Post-emergence effect against POLCO in % (POLCO; 80 g/ha): 80%; Post-emergence effect against VIOTR in % (VIOTR; 320 g/ha): 80%; Post-emergence effect against MATIN in % (MATIN; 320 g/ha): 80%; Post-emergence effect against ORYSA (ORYSA; 20 g/ha): 0%; Post-emergence effect against ORYSA (ORYSA; 80 g/ha): 0%
